Data published in US9701670B2, “Pyrazolyl-ureas as kinase inhibitors” (RESPIVERT LIMITED, priority 2013, dated 2017).

Key:
[1] = biological target: p38 MAPKα isoform (MAPK14) (Homo sapiens (Human), UniProt Q16539); assay: p38 MAPKα enzyme inhibition (FRET, Z-LYTE), Method 1; type: biochemical; conditions: Method 1 (Table 4a1)
[2] = test system: Differentiated U937 cells; assay: (l) Cell viability: MTT assay; type: cell-based, human; conditions: 1 μg/mL
Outline: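 MTT read-out (1 h, absorbance 550 nm) on d-U937 cells after pre-incubation with 1 or 10 μg/mL compound under two regimes: 4 h, 5% FCS, or 24 h, 10% FCS RPMI1640. Values are percent loss of viability relative to vehicle (0.5% DMSO), so increases are reported as negative.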

Chain of p38 MAPKα isoform (MAPK14) (Q16539 whole entry, canonical isoform): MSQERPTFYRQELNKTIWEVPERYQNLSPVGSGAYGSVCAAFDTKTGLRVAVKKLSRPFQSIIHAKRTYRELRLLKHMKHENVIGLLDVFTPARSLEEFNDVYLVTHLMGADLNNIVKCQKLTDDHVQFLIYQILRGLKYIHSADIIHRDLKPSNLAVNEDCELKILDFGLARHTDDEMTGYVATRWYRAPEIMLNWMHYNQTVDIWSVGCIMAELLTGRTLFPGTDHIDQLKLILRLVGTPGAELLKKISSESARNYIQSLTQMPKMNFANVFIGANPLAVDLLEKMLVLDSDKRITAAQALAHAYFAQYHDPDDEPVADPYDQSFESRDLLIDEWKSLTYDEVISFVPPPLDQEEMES

Compound	IC50 [1] [µM]	Cell viability at time point in d-U937 cells 4 h [2]	Cell viability at time point in d-U937 cells 24 h [2]
COc1ccc(-n2nc(C(C)C)cc2NC(=O)Nc2ccc(Oc3ccnc(Nc4ccc(C(=O)NCCN5CCOCC5)cc4OC)n3)c3ccccc23)cc1 [Example 38]	0.012	−ve (−ve and +ve indicate that the value is below and above respectively, the no significant effect threshold, defined as 30% inhibition at 1 μg/mL at the time point indicated.)	−ve (−ve and +ve indicate that the value is below and above respectively, the no significant effect threshold, defined as 30% inhibition at 1 μg/mL at the time point indicated.)
Cc1csc(-n2nc(C(C)(C)C)cc2NC(=O)Nc2ccc(Oc3ccnc(Nc4cccc(C(=O)NCCN5CCOCC5)c4)n3)c3ccccc23)c1 [Example 24, 3-((4-((4-(3-(3-(tert-butyl)-1-(4-methylthiophen-2-yl)-1H-pyrazol-5-yl)ureido)naphthalen-1-yl)oxy)pyrimidin-2-yl)amino)-N-(2-morpholinoethyl)benzamide]	0.011	−ve (−ve and +ve indicate that the value is below and above respectively, the no significant effect threshold, defined as 30% inhibition at 1 μg/mL at the time point indicated.)	−ve (−ve and +ve indicate that the value is below and above respectively, the no significant effect threshold, defined as 30% inhibition at 1 μg/mL at the time point indicated.)
COc1ccc(-n2nc(C(C)(C)C)cc2NC(=O)Nc2ccc(Oc3ccnc(Nc4cccc(C(=O)NCCN5CCOCC5)c4)n3)c3ccccc23)cc1 [Example 21, 3-((4-((4-(3-(3-(tert-butyl)-1-(4-methoxyphenyl)-1H-pyrazol-5-yl)ureido)naphthalen-1-yl)oxy)pyrimidin-2-yl)amino)-N-(2-morpholinoethyl)benzamide]	0.01	−ve (−ve and +ve indicate that the value is below and above respectively, the no significant effect threshold, defined as 30% inhibition at 1 μg/mL at the time point indicated.)	−ve (−ve and +ve indicate that the value is below and above respectively, the no significant effect threshold, defined as 30% inhibition at 1 μg/mL at the time point indicated.)
COCCNC(=O)c1cc(Nc2nccc(Oc3ccc(NC(=O)Nc4cc(C(C)(C)C)nn4-c4ccc(C)cc4)c4ccccc34)n2)cc(OC)c1 [Example 67, 3-((4-((4-(3-(3-(tert-butyl)-1-(p-tolyl)-1H-pyrazol-5-yl)ureido)naphthalen-1-yl)oxy)pyrimidin-2-yl)amino)-5-methoxy-N-(2-methoxyethyl)benzamide]	0.024	−ve (−ve and +ve indicate that the value is below and above respectively, the no significant effect threshold, defined as 30% inhibition at 1 μg/mL at the time point indicated.)	−ve (−ve and +ve indicate that the value is below and above respectively, the no significant effect threshold, defined as 30% inhibition at 1 μg/mL at the time point indicated.)
COc1cc(Nc2nccc(Oc3ccc(NC(=O)Nc4cc(C5(C)CC5)nn4-c4ccc(C)cc4)c4ccccc34)n2)cc(C(=O)NCCN2CCOCC2)c1 [Example 51, 3-methoxy-5-((4-((4-(3-(3-(1-methylcyclopropyl)-1-(p-tolyl)-1H-pyrazol-5-yl)ureido)naphthalen-1-yl)oxy)pyrimidin-2-yl)amino)-N-(2-morpholinoethyl)benzamide]	0.015	−ve (−ve and +ve indicate that the value is below and above respectively, the no significant effect threshold, defined as 30% inhibition at 1 μg/mL at the time point indicated.)	−ve (−ve and +ve indicate that the value is below and above respectively, the no significant effect threshold, defined as 30% inhibition at 1 μg/mL at the time point indicated.)
COc1ccc(-n2nc(C3(C)COC3)cc2NC(=O)Nc2ccc(Oc3ccnc(Nc4cccc(C(=O)NCCN5CCOCC5)c4)n3)c3ccccc23)cc1 [Example 23, 3-((4-((4-(3-(1-(4-methoxyphenyl)-3-(3-methyloxetan-3-yl)-1H-pyrazol-5-yl)ureido)naphthalen-1-yl)oxy)pyrimidin-2-yl)amino)-N-(2-morpholinoethyl)benzamide]	< 0.001	−ve (−ve and +ve indicate that the value is below and above respectively, the no significant effect threshold, defined as 30% inhibition at 1 μg/mL at the time point indicated.)	−ve (−ve and +ve indicate that the value is below and above respectively, the no significant effect threshold, defined as 30% inhibition at 1 μg/mL at the time point indicated.)
COc1cc(C(=O)NCCO)ccc1Nc1nccc(Oc2ccc(NC(=O)Nc3cc(C(C)(C)C)nn3-c3ccc(C)cc3)c3ccccc23)n1 [Example 4, 4-((4-((4-(3-(3-(tert-Butyl)-1-(p-tolyl)-1H-pyrazol-5-yl)ureido)naphthalen-1-yl)oxy)pyrimidin-2-yl)amino)-N-(2-hydroxyethyl)-3-methoxybenzamide]	0.026	−ve (−ve and +ve indicate that the value is below and above respectively, the no significant effect threshold, defined as 30% inhibition at 1 μg/mL at the time point indicated.)	−ve (−ve and +ve indicate that the value is below and above respectively, the no significant effect threshold, defined as 30% inhibition at 1 μg/mL at the time point indicated.)
CCCNC(=O)c1cccc(Nc2nccc(Oc3ccc(NC(=O)Nc4cc(C(C)(C)C)nn4-c4ccc(OC)cc4)c4ccccc34)n2)c1 [Example 17, 3-(4-(4-(3-(3-tert-butyl-1-(4-methoxyphenyl)-1H-pyrazol-5-yl)ureido)naphthalen-1-yloxy)pyrimidin-2-ylamino)-N-propylbenzamide]	0.054	−ve (−ve and +ve indicate that the value is below and above respectively, the no significant effect threshold, defined as 30% inhibition at 1 μg/mL at the time point indicated.)	−ve (−ve and +ve indicate that the value is below and above respectively, the no significant effect threshold, defined as 30% inhibition at 1 μg/mL at the time point indicated.)
COc1ccc(-n2nc(C(C)C)cc2NC(=O)Nc2ccc(Oc3ccnc(Nc4cc(C(=O)NCCN5CCOCC5)cc(C(F)(F)F)c4)n3)c3ccccc23)cc1 [Example 47]	0.01	−ve (−ve and +ve indicate that the value is below and above respectively, the no significant effect threshold, defined as 30% inhibition at 1 μg/mL at the time point indicated.)	−ve (−ve and +ve indicate that the value is below and above respectively, the no significant effect threshold, defined as 30% inhibition at 1 μg/mL at the time point indicated.)
COc1cc(Nc2nccc(Oc3ccc(NC(=O)Nc4cc(C(C)C)nn4-c4ccc(C)c(C)c4)c4ccccc34)n2)cc(C(=O)NCCN2CCOCC2)c1 [Example 56, 3-((4-((4-(3-(1-(3,4-dimethylphenyl)-3-isopropyl-1H-pyrazol-5-yl)ureido)naphthalen-1-yl)oxy)pyrimidin-2-yl)amino)-5-methoxy-N-(2-morpholinoethyl)benzamide]	< 0.001	−ve (−ve and +ve indicate that the value is below and above respectively, the no significant effect threshold, defined as 30% inhibition at 1 μg/mL at the time point indicated.)	−ve (−ve and +ve indicate that the value is below and above respectively, the no significant effect threshold, defined as 30% inhibition at 1 μg/mL at the time point indicated.)
COc1cc(C(=O)NCCN2CCOCC2)ccc1Nc1nccc(Oc2ccc(NC(=O)Nc3cc(C(C)(C)C)nn3-c3ccc(C)cc3)c3ccccc23)n1 [Example 37, 4-((4-((4-(3-(3-(tert-butyl)-1-(p-tolyl)-1H-pyrazol-5-yl)ureido)naphthalen-1-yl)oxy)pyrimidin-2-yl)amino)-3-methoxy-N-(2-morpholinoethyl)benzamide]	0.044	−ve (−ve and +ve indicate that the value is below and above respectively, the no significant effect threshold, defined as 30% inhibition at 1 μg/mL at the time point indicated.)	−ve (−ve and +ve indicate that the value is below and above respectively, the no significant effect threshold, defined as 30% inhibition at 1 μg/mL at the time point indicated.)
COc1ccc(C(=O)NCCO)cc1Nc1nccc(Oc2ccc(NC(=O)Nc3cc(C(C)C)nn3-c3ccc(C)cc3)c3ccccc23)n1 [Example 32, N-(2-hydroxyethyl)-3-((4-((4-(3-(3-isopropyl-1-(p-tolyl)-1H-pyrazol-5-yl)ureido)naphthalen-1-yl)oxy)pyrimidin-2-yl)amino)-4-methoxybenzamide]	0.001	−ve (−ve and +ve indicate that the value is below and above respectively, the no significant effect threshold, defined as 30% inhibition at 1 μg/mL at the time point indicated.)	−ve (−ve and +ve indicate that the value is below and above respectively, the no significant effect threshold, defined as 30% inhibition at 1 μg/mL at the time point indicated.)
Cc1ccc(-n2nc(C(C)C)cc2NC(=O)Nc2ccc(Oc3ccnc(Nc4cc(Cl)cc(C(=O)NCCN5CCOCC5)c4)n3)c3ccccc23)cc1 [Example 60, 3-chloro-5-((4-((4-(3-(3-isopropyl-1-(p-tolyl)-1H-pyrazol-5-yl)ureido)naphthalen-1-yl)oxy)pyrimidin-2-yl)amino)-N-(2-morpholinoethyl)benzamide]	0.016	−ve (−ve and +ve indicate that the value is below and above respectively, the no significant effect threshold, defined as 30% inhibition at 1 μg/mL at the time point indicated.)	−ve (−ve and +ve indicate that the value is below and above respectively, the no significant effect threshold, defined as 30% inhibition at 1 μg/mL at the time point indicated.)
